Assay results published in US20070129359A1, “Tetrahydronaphthalene derivatives, processes for their preparation and their use as antiinflammatory agents” (priority 2005, published 2007).

Columns and labels:
[1] = target: T1, glucocorticoid receptor (GR) (Homo sapiens, UniProt P04150); experiment: binding to the glucocorticoid receptor (recombinant receptor, Sf9 cytosol); settings: cytosol of Sf9 cells, reference [3H]-dexamethasone
T1 construct: made in house; host or cells: Sf9 cells infected with recombinant baculovirus (cytosol preparation)
T1 sequence (P04150 1-777): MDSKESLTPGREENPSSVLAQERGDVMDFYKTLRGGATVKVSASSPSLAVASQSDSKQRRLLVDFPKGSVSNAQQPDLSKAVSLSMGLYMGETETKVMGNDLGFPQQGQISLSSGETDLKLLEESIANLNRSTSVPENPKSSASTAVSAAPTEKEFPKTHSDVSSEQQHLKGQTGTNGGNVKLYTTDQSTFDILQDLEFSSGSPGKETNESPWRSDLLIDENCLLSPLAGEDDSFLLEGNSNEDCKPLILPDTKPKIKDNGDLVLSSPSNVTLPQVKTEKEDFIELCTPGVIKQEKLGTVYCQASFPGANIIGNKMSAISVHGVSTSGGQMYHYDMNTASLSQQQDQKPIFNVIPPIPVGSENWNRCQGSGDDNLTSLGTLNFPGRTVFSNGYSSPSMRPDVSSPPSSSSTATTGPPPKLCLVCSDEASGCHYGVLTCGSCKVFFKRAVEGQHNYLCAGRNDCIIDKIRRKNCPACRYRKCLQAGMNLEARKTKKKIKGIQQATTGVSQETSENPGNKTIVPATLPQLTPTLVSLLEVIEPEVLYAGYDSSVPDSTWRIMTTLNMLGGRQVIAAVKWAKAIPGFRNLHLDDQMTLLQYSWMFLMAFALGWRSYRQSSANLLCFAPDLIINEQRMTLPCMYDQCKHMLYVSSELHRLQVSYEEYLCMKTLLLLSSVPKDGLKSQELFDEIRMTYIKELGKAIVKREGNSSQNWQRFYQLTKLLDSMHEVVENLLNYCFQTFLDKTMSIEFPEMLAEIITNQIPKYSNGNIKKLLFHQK
Text: (§1) The binding of the substances to the glucocorticoid receptor (GR) and further steroid hormone receptors (mineral corticoid receptor (MR), progesterone receptor (PR) and androgen receptor (AR)) is examined with the aid of recombinantly prepared receptors. Cytosol preparations of Sf9 cells which had been infected with recombinant baculoviruses which code for the GR are employed for the binding studies. Compared with the reference substance [^3H]-dexamethasone, the substances show a high affinity for the GR.

[2] = target: T2, progesterone receptor (PR) (Homo sapiens, UniProt P06401); experiment: binding to the progesterone receptor (recombinantly prepared receptor)
T2 construct: made in house
T2 sequence (P06401 1-933): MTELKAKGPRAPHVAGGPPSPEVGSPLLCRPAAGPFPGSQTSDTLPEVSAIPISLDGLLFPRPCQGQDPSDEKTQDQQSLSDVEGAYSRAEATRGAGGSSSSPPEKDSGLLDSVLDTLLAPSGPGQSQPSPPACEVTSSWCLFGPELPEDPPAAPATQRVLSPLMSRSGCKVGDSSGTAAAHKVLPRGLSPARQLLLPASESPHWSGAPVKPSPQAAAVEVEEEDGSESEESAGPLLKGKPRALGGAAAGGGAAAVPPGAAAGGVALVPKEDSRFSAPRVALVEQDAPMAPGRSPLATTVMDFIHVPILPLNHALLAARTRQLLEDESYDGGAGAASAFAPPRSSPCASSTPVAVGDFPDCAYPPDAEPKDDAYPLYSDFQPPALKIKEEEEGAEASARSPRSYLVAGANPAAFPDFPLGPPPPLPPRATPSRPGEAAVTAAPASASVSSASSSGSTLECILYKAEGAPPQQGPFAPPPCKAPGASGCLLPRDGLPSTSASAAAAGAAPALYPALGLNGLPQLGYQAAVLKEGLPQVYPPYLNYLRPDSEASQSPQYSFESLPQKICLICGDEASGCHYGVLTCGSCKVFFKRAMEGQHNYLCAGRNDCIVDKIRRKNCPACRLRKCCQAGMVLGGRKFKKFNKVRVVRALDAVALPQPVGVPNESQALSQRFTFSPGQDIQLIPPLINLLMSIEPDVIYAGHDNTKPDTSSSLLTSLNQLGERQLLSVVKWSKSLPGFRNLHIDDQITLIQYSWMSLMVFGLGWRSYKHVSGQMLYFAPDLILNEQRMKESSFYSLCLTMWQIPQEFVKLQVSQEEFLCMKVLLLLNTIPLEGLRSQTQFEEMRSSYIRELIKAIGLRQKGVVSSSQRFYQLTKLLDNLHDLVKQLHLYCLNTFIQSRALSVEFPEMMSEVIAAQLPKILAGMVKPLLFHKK
Text: as §1

[3] = system: IL-8 secretion in the human THP-1 monocyte cell line; experiment: inhibition of LPS-induced IL-8 secretion in THP-1 cells (ELISA); assay type: cell-based
Procedure: The compounds of the invention of the general formula (I) inhibit the secretion, induced by lipopolysaccharide (LPS), of the cytokine IL-8 in the human THP-1 monocyte cell line. The concentration of the cytokines was determined in the supernatant using a commercially available ELISA kit.

| IC50 [1] [nM] | IC50 [2] [nM] | IC50 ([3]; LPS, ELISA of supernatant, read-out: IC50(ILB) inhibition of LPS-induced IL-8 secretion) [nM] | Compound | efficiency with regard to [3H]-dexamethasone as standard ([3]; LPS-induced IL-8 secretion) [%] |
| --- | --- | --- | --- | --- |
| 36 | > 1000 |  | CC1(C)C[C@@](O)(C(F)(F)F)[C@H](NC(=O)c2ccc3occc3c2)c2ccc(F)c(O)c21 (relative stereo) [Example 3L, N-(cis-6-fluoro-2,5-dihydroxy-4,4-dimethyl-2-trifluoro-methyl-1,2,3,4-tetrahydronaphthalen-1-yl)benzofuran-5-carboxamide] |  |
|  |  | 1000 | COc1c(F)ccc2c1C(C)(C)C[C@@](O)(C(F)(F)F)[C@@H]2NC(=O)Nc1ccc2ccccc2c1 [Example 3E] | 11 |
